Reference: patent US20090226412A1, “AGENT FOR REDUCTION OF BLEEDING IN CEREBROVASCULAR DISORDER” (ONO PHARMACEUTICAL CO., LTD.,, priority 2005, published 2009)
Like-named read-outs stand apart in the source and are kept apart here.

Experiments:
[1] = Influence of PARP inhibitor on bleeding time (rat tail cut); settings: male SD rat, intravenous bolus, tail tip cut 5 minutes after administration, 30 minutes at a maximum; compound A 30 mg/kg, heparin 100 U/kg; saline control about 15 minutes
Procedure: (§2) A rat (male Sprague Dawley (SD) rat, 7 weeks old; Shimizu Laboratory Supplies Co., Ltd. (SLC))) was anesthetized with urethane (1.2 g/6 mL/kg, i.p.), and then the animal was placed on an incubation mat (Microtemp, Seabrook Medical Systems) set to 37° C. after indwelling a catheter (EMS cutdown tube, JMS Co., Ltd.) made of vinyl chloride in a left femoral vein for administration of a test substance. […] Five minutes after the administration, a tip of the tail was cut at the position of 2 mm with a razor (single-edged feather), and immediately, the tail was immersed in saline (Otsuka normal saline) warmed to 37° C. Finally, the time until the hemorrhage was stopped (30 minutes at a maximum) was measured, which was regarded as bleeding time.

[2] = rat, in vivo, iv, 30 mg/kg
Procedure: as §2

[3] = test system: normal human umbilical cord vein endothelial cell; assay: Effect on vascular endothelial cell death induced by hydrogen peroxide (WST-1 method); format: cell-based; settings: 0.5 mM hydrogen peroxide, 6 hours, compound added 15 minutes before
Procedure: A normal human umbilical cord vein endothelial cell (Cat. No. CRL-1730; Dainippon Pharmaceutical Co., Ltd.) was cultured in serum-containing liquid culture medium for vascular endothelial cell (Nissui Pharmaceutical Co., Ltd.) under conditions of 37° C., 5% CO2. The exchange of the culture fluid was performed every other day. The cells proliferated to confluent state were sub-cultured. 5×10^4 cells/mL of cell suspension was disseminated in an amount of 500 μL/well to a gelatin-coated 24 well plate (Iwaki). A few days later, the culture medium was removed after confirming that the cells were proliferated to confluent state, and changed to 480 μL/well of Dulbecco's Modified Eagle's Medium (DMEM; GIBCO-BRL)). The compound A was adjusted to become 50 times larger than the addition final concentration in DMEM after the dissolution of the compound A to dimethyl sulfoxide (DMSO). The sterilization was performed by using 0.22 μm filter for filtration sterilization (Millex, MILLIPORE). […]
The evaluation was performed by means of WST-1 method (modulated MTT method) with the use of Cell Counting Kit (DOJINDO). […] After that, 200 μL/well of the culture supernatant was collected, and then the absorbance (450 nm) was measured. The cell death inhibitory rate of the test substance treated group was calculated, regarding that the cell survival rate of the control group (untreated group) as a standard (100%).

[4] = test system: cerebral hemorrhage model with the use of SHR; assay: Cerebral hemorrhage in MCA occlusion-recanalization model, intracerebral hemoglobin by Drabkin's reagent; format: in vivo, rat; settings: 3 mg/kg/h continuous i.v. for 9 hours right after occlusion; measured 24 hours after MCA occlusion; sham 13.0±1.1, saline 25.5±2.2
Procedure: (§1) For the animal, a male spontaneously hypertensive rat (hereinafter abbreviated to SHR) (14 to 15 week old); Japan Charles River) was used. The preparation of middle cerebral artery (hereinafter abbreviated to MCA) occlusion-recanalization model of rat was performed according to the method of Koizumi, et al., (in Stroke 8: 1-7, 1986). In particular, the rat was subjected to anesthetic induction by 4% halothane (halothane vaporizer, Shinano Co., Ltd.) in 30% oxygen/70% air. The anesthesia was maintained by means of 2.5% halothane. The animal was placed in a dorsal position. The dissection of anterior neck midline was performed, the left side of the common carotid artery and the external carotid artery were exfoliated from the surrounding connective tissue around the left carotid artery bifurcation, and then a thread was hooked around the artery to ligate, respectively. Afterwards, the left internal carotid artery was exfoliated from the surrounding connective tissue, and then a thread was hooked around the artery. […] An amount of cerebral hemorrhage was measured 24 hours after the MCA occlusion.
An amount of cerebral hemorrhage was measured on the basis of the content of intracerebral hemoglobin (Hb) as an indicator according to a method of Asahi et al. (J Cereb Blood Flow Metab 20: 452-457, 2000)). […] Afterwards, absorbance was measured at 540 nm of photometry wavelength. […]

[5] = test system: cerebral hemorrhage model with the use of SHR; assay: Cerebral hemorrhage in MCA occlusion-recanalization model, intracerebral hemoglobin by ELISA; format: in vivo, rat; settings: 24 hours after MCA occlusion, sham 4.5±0.74, saline 19.6±2.21
Procedure: as §1, with “artery. The range of about 5 mm from the tip of a 4-0 nylon thread for surgery (NC sterilization operation thread, Nichiyo industry Co., Ltd.) (25 mm long) was silicon-coated with an impression material for dentistry (mixture solution of XANTOPREN VL plus and OPTOSIL-XANTOPREN ACTIVATOR, Heraeus Dental Material Co., Ltd.). Then the thread was inserted to the left carotid artery from the left carotid artery bifurcation. Then, the origin part of the left MCA was occluded by means of fixing with a Sugita type clip (Mizuho Medical Industry Co., Ltd.). Nine hours after the occlusion, rat was subjected to anesthetic induction with 4% halothane in 30% oxygen/70% air. The anesthesia was maintained by means of 2.5% halothane.” for “artery.”
In addition, intracerebral hemoglobin content can be also measured by using the following methods, in particular, an enzyme-linked immunosorbent assay (ELISA). […]

Row | bleeding time [1] | Molecule | bleeding time [2] | inhibitory effect of the vascular endothelial cell disorder (cell death inhibitory rate) [3] | content of intracerebral hemoglobin [4] | content of intracerebral hemoglobin ([5]; 1 mg/kg/h) | content of intracerebral hemoglobin ([5]; 3 mg/kg/h) | content of intracerebral hemoglobin ([5]; 10 mg/kg/h)
1 | ≥ 30 min | heparin |  |  |  |  |  | 
2 |  | O=C(Cc1n[nH]c(=O)c2c1CCCC2)NCCCCN1CCOCC1 [compound A, 4-(N-(4-(morpholin-4-yl)butyl)carbamoylmethyl)-5,6,7,8-tetrahydrophthalazin-1(2H)-one] | about 15 minutes | showed an inhibitory effect of the vascular endothelial cell disorder dose-dependently | 17.7 ± 1.3 µL | 15.4 ± 2.19 µg/mL | 15.5 ± 2.14 µg/mL | 10.3 ± 1.24 µg/mL
